According to patent US20250002954A1, “Novel Compound, Use Thereof, and Method for Producing Same, and Compound-Containing Composition, Method for Producing 4-Trehalosamine, and Microorganism” (Microbial Chemistry Research Foundation, priority 2021, published 2025):

Tests used:
human trehalase = assay: Degradation by human trehalase (cell extract liquids of KP4 and KP4-TREH, LC-MS persistence rate); format: in vitro ADME; details: 20 μg/mL, 37° C., up to 24 hours; for degradation by cell extract liquid of human pancreatic cancer cells KP4: control cells
Experimental: In order to perform a degradation experiment with human trehalase, high expression strains of the same were made.
This plasmid was introduced into various kinds of cultured human cells using Viafect (manufactured by Promega), and the expression level of transient trehalase protein was analyzed by western blotting with 1/2,000-diluted anti-trehalase antibody (manufactured by Santa Cruz). […] Human pancreatic cancer cells KP4 into which pSF-TREH 3-3 plasmid had been introduced as described above was diluted to one cell or less per well, and applied to a 96-well microplate. They were cultured on DMEM culture medium containing 400 μg/mL of G418 (manufactured by Thermo Fisher Scientific), and clones with stable trehalase expression were selected and amplified. Ten strains of KP4-TREH which were the clones with the highest trehalase expression were chosen for use in the subsequent experiments.
Degradation of 4-trehalosamine and trehalose by cell extract liquids of human pancreatic cancer cells KP4 and 10 strains of KP4-TREH, which are cells with high human trehalase expression, was examined.
Using DMEM culture medium, each of the human pancreatic cancer cells KP4 and the 10 strains of KP4-TREH was amplified in a CO2 incubator at 37° C. until they were confluent. After that, the culture medium was removed and washed with PBS (manufactured by Takara Bio Inc.) three times, and cells were collected with a cell scraper in the PBS. After centrifuging the collected cell suspension at 400×g for 3 minutes and removing supernatant, 135 mM citric acid buffer solution (pH 5.7) containing 0.5% Triton (registered trademark) in an amount 15 times the precipitated cells was added and homogenized. The cells were centrifuged at 21,300×g for 10 minutes and the respective supernatants were collected. Aqueous solution of 4-trehalosamine or aqueous solution of trehalose was added at 20 μg/mL to each supernatant and they were left to stand at 37° C. At 0 hours, 2 hours, 8 hours, or 24 hours from the start of reaction, the reaction solutions were collected, was diluted with methanol to 1/10, and centrifuged at 21,300×g for 10 minutes. The respective supernatants were collected and LC-MS analysis was performed under similar conditions to test example 1 to determine the persistence rates of 4-trehalosamine and trehalose in the reaction solution (4TA C) of 4-trehalosamine and the cell extract liquid of human pancreatic cancer cells KP4, the reaction solution (4TA T) of 4-trehalosamine and the cell extract liquid of 10 strains of KP4-TREH, the reaction solution (TRH C) of trehalose and the cell extract liquid of human pancreatic cancer cells KP4, and the reaction solution (TRH T) of trehalose and the cell extract liquid of 10 strains of KP4-TREH.

[1] = test system: human ovarian cancer cells OVK18 and human malignant melanoma cells Mewo; assay: Autophagy inducing effect on cultured cells (western blotting of autophagy-related proteins); format: cell-based; details: 24 hours treatment, western blotting
Experimental: Expression and phosphorylation patterns of autophagy-related proteins when human ovarian cancer cells or human malignant melanoma cells were treated with 4-trehalosamine and trehalose analog for 24 hours were determined by western blotting.
Human ovarian cancer cells OVK18 (obtained from RIKEN BRC) and human malignant melanoma cells Mewo (JCRB0066) were each inoculated on a 12-well microplate at 8×10^4 cells/mL/well and cultured in DMEM culture medium at 37° C. for 72 hours, after which they were treated with test samples.
The test samples used were the 4-trehalosamine (4TA) obtained in the <Purification process> of production example 10, trehalose (TRH), the IMCTA-Cn compounds obtained in synthesis examples 1 to 8, trehalose ester (TRH-Cn) (manufactured by Dojindo Laboratories), n-dodecyl-β-D-maltoside (DDM), maltose (MLT), sucrose (SCR), and rapamycin (RM). Untreated cells without addition of compounds were used as control.
In treatment with the test samples, in order to avoid contact of a compound with locally high concentration with cells, a half of the culture fluid in each well was taken, and a required amount of test sample was dissolved in it. After dissolving it sufficiently, it was returned to the original well and treated at 37° C. for 24 hours.
Subsequently, culture medium containing the test samples was removed, washed once with PBS, and dissolved with 2×SDS sample buffer not containing 2-mercaptoethanol (2-ME) or bromphenol blue (BPB). After measuring the protein concentration in the dissolved sample with a BCA protein assay kit (manufactured by Thermo Fisher Scientific), 2-ME and BPB were added and the sample was boiled for 5 minutes, which was used as a sample for western blotting.
The western blotting was performed in a similar manner to test example 4 except that anti-LC3 antibody, which is a marker for autophagy, anti-p62, anti-cathepsin D antibody, anti-Phospho-Akt (Ser473) antibody, anti-Akt antibody, anti-Phospho-p70 S6K (T389) antibody, and anti-p70 S6K antibody (all manufactured by Cell Signaling Technology) were used at 1/2,000 dilution as the primary antibodies in the method described in test example 4.
The results for human ovarian cancer cells OVK18 are shown in FIGS. 20A to 20C, and the results for human malignant melanoma cells Mewo are shown in FIGS. 20D to 20F. In FIGS. 20A, 20B, 20D, and 20E, “PCD” denotes precursors of cathepsin D and “CD-HC” denotes cathepsin D heavy chain.

Row | Structure (SMILES) | degradation by cell extract liquid of 10 strains of KP4-TREH (high human trehalase expression) (human trehalase) | degradation by cell extract liquid of human pancreatic cancer cells KP4 (human trehalase) | expression of LC3-II (autophagy marker) [1]
1 | OC[C@H]1O[C@H](O[C@H]2O[C@H](CO)[C@@H](O)[C@H](O)[C@H]2O)[C@H](O)[C@@H](O)[C@@H]1O [trehalose, reference compound] | almost disappeared after 8 hours | neither trehalose nor 4-trehalosamine was degraded | 
2 | N[C@H]1[C@H](O)[C@@H](O)[C@@H](O[C@H]2O[C@H](CO)[C@@H](O)[C@H](O)[C@H]2O)O[C@@H]1CO [4-trehalosamine] | almost no degradation or decrease | neither trehalose nor 4-trehalosamine was degraded | elevated expression of LC3-II
3 | OC[C@H]1O[C@@](CO)(O[C@H]2O[C@H](CO)[C@@H](O)[C@H](O)[C@H]2O)[C@@H](O)[C@@H]1O [sucrose] |  |  | expression of LC3-II was also observed
